Like-named read-outs stand apart in the source and are kept apart here.
Columns and labels:
acetylcholinesterase [1] = biological target: T1, acetylcholinesterase (Homo sapiens, UniProt P22303); assay: biochemical
acetylcholinesterase [2] = biological target: T1, acetylcholinesterase
[3] = biological target: human cannabinoid CB1 receptor (Homo sapiens, UniProt P21554); assay: biochemical
Sequence of human cannabinoid CB1 receptor (P21554 whole entry): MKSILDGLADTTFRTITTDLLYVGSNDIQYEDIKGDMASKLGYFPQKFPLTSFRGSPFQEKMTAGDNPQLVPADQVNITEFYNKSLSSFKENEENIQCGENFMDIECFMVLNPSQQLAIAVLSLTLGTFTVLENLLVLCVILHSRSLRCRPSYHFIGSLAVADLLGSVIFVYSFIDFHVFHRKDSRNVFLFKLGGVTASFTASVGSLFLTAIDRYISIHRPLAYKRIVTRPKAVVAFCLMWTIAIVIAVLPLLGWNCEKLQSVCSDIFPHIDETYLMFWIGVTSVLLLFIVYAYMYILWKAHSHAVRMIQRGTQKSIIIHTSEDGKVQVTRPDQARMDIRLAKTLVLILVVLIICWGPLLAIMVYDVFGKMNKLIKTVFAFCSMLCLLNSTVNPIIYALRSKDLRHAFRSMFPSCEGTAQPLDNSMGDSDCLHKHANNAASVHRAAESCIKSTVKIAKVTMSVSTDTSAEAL
Experimental: After incubation of a freshly prepared cell membrane preparation with the [^3H]-ligand, with or without addition of compounds of the invention, separation of bound and free ligand was performed by filtration over glass fiber filters. Radioactivity on the filter was measured by liquid scintillation counting.

T1 sequence (P22303 32-614): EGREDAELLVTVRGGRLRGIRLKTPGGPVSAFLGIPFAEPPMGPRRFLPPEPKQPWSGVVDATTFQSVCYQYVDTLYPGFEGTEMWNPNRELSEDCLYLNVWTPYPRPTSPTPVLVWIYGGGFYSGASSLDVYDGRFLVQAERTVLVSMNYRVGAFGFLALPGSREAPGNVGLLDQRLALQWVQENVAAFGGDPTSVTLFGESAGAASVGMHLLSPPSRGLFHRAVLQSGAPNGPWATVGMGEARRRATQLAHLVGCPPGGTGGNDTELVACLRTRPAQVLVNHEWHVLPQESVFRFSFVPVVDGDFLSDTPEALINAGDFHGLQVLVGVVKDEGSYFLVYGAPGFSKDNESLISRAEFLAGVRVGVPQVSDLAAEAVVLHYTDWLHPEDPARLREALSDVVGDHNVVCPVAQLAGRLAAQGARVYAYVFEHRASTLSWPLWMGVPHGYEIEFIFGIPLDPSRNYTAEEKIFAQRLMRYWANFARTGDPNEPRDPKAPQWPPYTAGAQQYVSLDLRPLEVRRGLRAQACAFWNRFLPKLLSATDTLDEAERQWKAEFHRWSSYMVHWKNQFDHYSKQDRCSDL

SMILES	IC50 (acetylcholinesterase [1]) [µM]	IC50 (acetylcholinesterase [2]) [µM]	Ki [3] [nM]
CN=C(NS(=O)(=O)c1ccc(Cl)cc1)N1C[C@H](c2ccccc2)C(c2ccc(Cl)cc2)=N1 [SLV319]	6.31	–	–
Cc1c(C(=O)NN2CCCCC2)nn(-c2ccc(Cl)cc2Cl)c1-c1ccc(Cl)cc1 [rimonabant]	–	25.1	–
O=S(=O)(/N=C(/NCCCCNc1c2c(nc3ccccc13)CCCC2)N1CC(c2ccccc2)C(c2ccc(Cl)cc2)=N1)c1ccc(Cl)cc1 (stereo not shown) [compound 2, 4-chloro-N-{[3-(4-chlorophenyl)-4-phenyl-4,5-dihydro-1H-pyrazolyl]-[7-(1,2,3,4-tetrahydroacridin-9-yl-amino)butylamino]methylene}benzene sulfonamide]	–	2.51	39.8

— patent US8063062B2, “Compounds with a combination of cannabinoid-CB1 antagonism and acetylcholinesterase inhibition” (Solvay Pharmaceuticals B.V., priority 2006, dated 2011)
